Earlier results as cited in patent publication US20180267043A1, “USE OF BIOMARKERS FOR PREDICTING CLINICAL SENSITIVITY TO CANCER TREATMENT” (CELGENE CORPORATION, priority 2014, published 2018).

How the values were obtained:
CRBN [1] = molecular target: T1, CRBN (Homo sapiens, UniProt Q96SW2); details: Ito et al., Science 2010; cited from earlier work
Target sequence in this assay (Q96SW2 whole entry): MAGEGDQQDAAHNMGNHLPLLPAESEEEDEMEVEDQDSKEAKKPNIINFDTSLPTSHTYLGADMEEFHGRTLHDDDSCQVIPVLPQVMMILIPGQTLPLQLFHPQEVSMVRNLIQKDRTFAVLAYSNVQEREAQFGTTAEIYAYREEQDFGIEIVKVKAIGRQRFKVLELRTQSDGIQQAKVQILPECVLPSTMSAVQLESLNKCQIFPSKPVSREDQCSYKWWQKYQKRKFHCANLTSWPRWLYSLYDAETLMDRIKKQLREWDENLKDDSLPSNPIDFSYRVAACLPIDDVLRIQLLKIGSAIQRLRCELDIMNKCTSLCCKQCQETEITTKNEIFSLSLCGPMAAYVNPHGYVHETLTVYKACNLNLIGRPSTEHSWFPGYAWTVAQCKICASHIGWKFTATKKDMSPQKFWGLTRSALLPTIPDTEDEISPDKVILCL

CRBN [2] = molecular target: CRBN (Homo sapiens, UniProt Q96SW2, W386A/Y384A); details: double mutant; cited from earlier work
CRBN [3] = details: individual point mutants; cited from earlier work
CRBN [4] = molecular target: T1, CRBN; details: in vitro; cited from earlier work
Target sequence in this assay (Q96SW2 whole entry): as above
Target sequence in this assay (Q16531 whole entry partner): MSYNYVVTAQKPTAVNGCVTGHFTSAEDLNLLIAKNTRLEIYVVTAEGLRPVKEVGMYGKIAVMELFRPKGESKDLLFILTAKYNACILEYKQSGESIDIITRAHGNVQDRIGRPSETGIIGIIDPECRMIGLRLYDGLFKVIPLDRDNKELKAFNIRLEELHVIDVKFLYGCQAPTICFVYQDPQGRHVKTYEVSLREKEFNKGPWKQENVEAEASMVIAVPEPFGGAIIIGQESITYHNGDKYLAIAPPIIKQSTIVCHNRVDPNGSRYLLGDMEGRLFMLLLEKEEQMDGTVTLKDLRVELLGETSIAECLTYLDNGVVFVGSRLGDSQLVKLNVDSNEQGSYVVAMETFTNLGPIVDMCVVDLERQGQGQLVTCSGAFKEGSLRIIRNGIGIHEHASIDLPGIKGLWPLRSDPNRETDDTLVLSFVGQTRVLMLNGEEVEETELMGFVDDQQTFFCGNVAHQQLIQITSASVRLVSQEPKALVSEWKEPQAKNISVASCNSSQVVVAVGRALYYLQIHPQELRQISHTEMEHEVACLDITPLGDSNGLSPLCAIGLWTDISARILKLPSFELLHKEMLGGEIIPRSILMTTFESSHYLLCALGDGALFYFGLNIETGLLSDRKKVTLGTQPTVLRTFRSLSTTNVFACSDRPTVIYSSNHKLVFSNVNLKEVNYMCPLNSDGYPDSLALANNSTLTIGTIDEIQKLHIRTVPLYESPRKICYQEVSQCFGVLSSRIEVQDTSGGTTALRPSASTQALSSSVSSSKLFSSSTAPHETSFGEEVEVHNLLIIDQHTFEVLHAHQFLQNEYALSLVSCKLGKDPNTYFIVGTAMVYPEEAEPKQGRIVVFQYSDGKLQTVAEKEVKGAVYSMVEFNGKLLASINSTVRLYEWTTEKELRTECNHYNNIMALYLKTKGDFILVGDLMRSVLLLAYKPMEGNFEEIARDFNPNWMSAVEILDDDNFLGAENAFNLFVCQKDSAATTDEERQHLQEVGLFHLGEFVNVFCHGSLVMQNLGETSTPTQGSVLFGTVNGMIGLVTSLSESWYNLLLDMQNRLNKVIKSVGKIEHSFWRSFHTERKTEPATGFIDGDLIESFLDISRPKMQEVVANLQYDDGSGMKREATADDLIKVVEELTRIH
Target sequence in this assay (Q13619 whole entry partner): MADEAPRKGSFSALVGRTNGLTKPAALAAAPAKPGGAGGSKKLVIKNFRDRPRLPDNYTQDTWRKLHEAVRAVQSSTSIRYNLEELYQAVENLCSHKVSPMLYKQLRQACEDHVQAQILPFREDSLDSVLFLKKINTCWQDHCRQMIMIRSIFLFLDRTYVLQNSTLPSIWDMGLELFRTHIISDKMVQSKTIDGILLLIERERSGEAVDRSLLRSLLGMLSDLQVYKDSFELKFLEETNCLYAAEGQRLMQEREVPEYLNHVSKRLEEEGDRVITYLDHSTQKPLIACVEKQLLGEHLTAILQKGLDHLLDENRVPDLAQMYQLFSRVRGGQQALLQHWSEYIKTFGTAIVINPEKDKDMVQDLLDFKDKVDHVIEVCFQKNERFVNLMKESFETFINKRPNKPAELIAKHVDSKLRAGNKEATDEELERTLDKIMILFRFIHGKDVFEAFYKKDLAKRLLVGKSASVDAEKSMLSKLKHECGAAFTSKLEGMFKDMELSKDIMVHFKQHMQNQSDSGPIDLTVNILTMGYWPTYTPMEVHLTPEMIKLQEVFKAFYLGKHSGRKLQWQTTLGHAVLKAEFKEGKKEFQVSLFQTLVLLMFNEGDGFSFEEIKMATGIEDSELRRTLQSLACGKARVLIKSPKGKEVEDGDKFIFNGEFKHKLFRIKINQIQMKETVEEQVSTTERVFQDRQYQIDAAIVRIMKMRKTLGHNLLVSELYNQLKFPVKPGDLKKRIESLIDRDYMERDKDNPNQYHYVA
Target sequence in this assay (P62877 whole entry partner): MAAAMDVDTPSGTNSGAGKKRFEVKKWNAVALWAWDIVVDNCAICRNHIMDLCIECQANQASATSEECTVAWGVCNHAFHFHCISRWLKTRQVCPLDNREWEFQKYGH

CRBN (Homo sapiens, UniProt Q96SW2, W386A/Y384A), sequence (Q96SW2 whole entry Y384A/W386A): as the sequence (Q96SW2 whole entry) above, with Y384A, W386A counted along it

## O=C1CCC(N2C(=O)c3ccccc3C2=O)C(=O)N1 (stereo not shown) [thalidomide]
CRBN [1]
  Binding to CRBN: binds to thalidomide
CRBN [2]
  Binding to CRBN double mutant (Y384A, W386A): lowest thalidomide-binding activity
CRBN [3]
  Binding to CRBN point mutants Y384A and W386A: both defective for thalidomide binding
CRBN [4]
  Auto-ubiquitination of CRBN: inhibit auto-ubiquitination of CRBN in vitro
